Measured values taken from patent US20260218439A1, “METHOD OF TREATING OR REDUCING CANCER COMPRISING ADMINISTERING A COMPOUND 3-(BENZO[D][1,3]DIOXOL-5-YL)-7-(1-HYDROXYPROPAN-2-YL)-1-(1H-INDOLE-3-YL)-6,7-DIHYDRO-3H-OXAZOLE[3,4-A]PYRAZINE-5,8-DIONE” (BIOLAB SANUS FARMACEUTICA LTDA, priority 2019, published 2026).

Columns and labels:
[1] = test system: RT4-human bladder cancer cells; assay: Cell proliferation inhibition (CYQuant intracellular DNA), RT4; type: cell-based; details: for % Cell Proliferation Inhibition (intracellular DNA) RT4 (average ± E.P.M.): 72 hours
Description: (§1) For the execution of the assay, the compounds are diluted in DMSO 100% (v/v) at a concentration of 1000 μM and subsequently diluted in a Sodium Chloride solution 0.9% to obtain the storage solutions of interest for use in the assays. The final concentration of interest will be directly diluted in the cell culture medium. For the assay there are used the following tumor cell lineages: PC3-human prostate cancer cells; LNCAP-human prostate cancer cells; DU145-human prostate cancer; MNK45-human gastric cancer and RT4-human bladder cancer cells. The tumor cell lineages are maintained in culture according to standard procedures established by the Cell Bank of Rio de Janeiro (lineage place of origin) Procedure: • For the assay, the tumor cells are seeded in the concentration of 10.000 cells per well (final volume of the reaction of […]), the plate is incubated for 8 hours, for the cells to adhere to the wall of the wells. After this period, the plate is divided in groups: • (a) test group: […] of the samples were added (test compound) in the concentrations of interest; • (b) positive control group: […] of culture medium were added (100% of cell proliferation); • (c) negative control group: 200 mL of culture medium and […] of the vehicle used were added to dilute the compounds (without cells—zero proliferation); • (d) control group: […] were added of the vehicle used to dilute the compounds. This group is important to evaluate whether the vehicle used interferes in the cell proliferation. OBSERVATION: the treatment with the concentrations of samples (test compounds) and of the controls are carried out in triplicate. • Incubate the plate for 72 hours in a CO2 kiln at 37° C. • After the incubation period, add […] of the solution with DNA marker from the CYQuant Kit and incubate the plate, for 60 minutes, in a CO2 incubator at 37° C. The fluorescence intensity is determined using a fluorescence microplate reader with 485 nm excitation and 530 nm emission detection. The results obtained were normalized relative to the positive control group (100% proliferation). For the compounds there are prepared the storage solutions in the concentrations of: 100 nM, 1 μM, 3 μM, 5 μM, 10 μM and 30 μM (DMSO 10% v/v). While the final concentrations in the test are of: 10 nM, 100 nM, 300 nM, 500 nM, 1000 nM and 3000 nM (in DMSO 1% v/v).

[2] = test system: MNK45-human gastric cancer; assay: Cell proliferation inhibition (CYQuant intracellular DNA), MNK45; type: cell-based; details: 72 hours
Description: as §1

[3] = test system: PC3-human prostate cancer cells; assay: Cell proliferation inhibition (CYQuant intracellular DNA), PC3; type: cell-based; details: for % Cell Proliferation Inhibition (intracellular DNA) PC-3 (average ± E.P.M.): 72 hours
Description: as §1

[4] = test system: DU145-human prostate cancer; assay: Cell proliferation inhibition (CYQuant intracellular DNA), DU145; type: cell-based; details: for % Cell Proliferation Inhibition (intracellular DNA) DU145 (average ± E.P.M.): 72 hours
Description: as §1

PDE5A1 = molecular target: T1, PDE5A1 (Homo sapiens, UniProt O76074); assay: PDE5A1 fluorescence polarization enzyme assay (BPS Bioscience kit 60350); type: biochemical
T1 construct: purchased BPS Bioscience 60350
Description: The evaluation of the compound is studied using BPS Bioscience enzyme assay kit (catalogue 60350). The PDE5A1 Assay kit is designed for identification of PDE5A1 inhibitors using fluorescence polarization. The assay is based on the binding of a fluorescent nucleotide monophosphate generated by PDE5A1 enzyme to the binding agent.
In this methodology only two simple steps on a microtiter plate are required for PDE5A1 reactions. First, the fluorescently labeled cGMP is incubated with PDE5A1 for 1 hour. Second, the binding agent is added to the reaction mixture to produce a change in fluorescent polarization that can then be measured using a fluorescence reader equipped for the measurement of fluorescence polarization.
For the assay the storage reagent FAM-Cyclic-3′,5′-GMP (20 μM) is diluted with PDE assay buffer to achieve the solution with a […]; the PDE5A1 enzyme is thawed and diluted with the PDE buffer obtaining a PDE5A1 solution at 10 μg/mL.
The assay compounds are diluted with DMSO 100% (v/v) at a concentration of 1000 μM and subsequently diluted in a Sodium chloride 0.9% solution to obtain a curve of concentrations of interest for the assay. The compounds are diluted in concentrations of: 10 nM, 30 nM, 50 nM, 100 nM, 300 nM, 500 nM, 1 μM, 3 μM, 5 μM (DMSO 10% v/v).
The study is comprised of groups: (i) substrate control; (ii) positive control (KIT); (iii) samples in several concentrations; (iv) tadalafil (comparative control). Each parameter (group) is triple labeled.
• For the 4 groups there is added, to each microplate well, […] of the FAM-Cyclic-3′ reagent, 5′-GMP (200 μM). • To the substrate control group there is added, to each well, […] of vehicle (DMSO 10% v/v) and […] PDE Buffer. • To the positive control group there is added, to each well, […] of vehicle (DMSO 10% v/v). • To the tadalafil group: there is added 5 mL of the solution in the concentrations of interest. • To the test group there is added 5 mL of the sample solution (test compound)
OBSERVATION: the parameters tested are in triplicate.
To begin the reaction, add […] of the PDE5A1 enzyme (diluted as described above) to the microplate wells designated as Positive Control and Samples (test and tadalafil), and incubate the microplate, for 1 hour, at a temperature of 25° C.
After the incubation period, the reaction is interrupted by the addition, in all the wells, of […] of the binding agent solution and the microplate is incubated for 30 minutes, under light stirring, at room temperature. The reading of the microplate is carried out in Polarized Fluorescence (475-495 nm—excitation and 518-538 nm—emission detection) 500 nanoseconds integration time.

[5] = test system: LNCAP-human prostate cancer cells; assay: Cell proliferation inhibition (CYQuant intracellular DNA), LNCAP; type: cell-based; details: for % Cell Proliferation Inhibition (intracellular DNA) LNCAP (average ± E.P.M.): 72 hours
Description: as §1

With “(R)-3-(benzo [d][1, 3]dioxol-5-yl)-7-((S)-1-hydroxypropan-2-yl)-1-(1H-indole-3-yl)-6, 7-dihydro-3H-oxazole [3, 4-a]pyrazine-5, 8-dione with (S)-3-(benzo [d][1,3]dioxol-5-yl)-7-((S)-1-hydroxypropan-2-yl)-1-(1H-indole-3-yl)-6, 7-dihydro-3H-oxazole [3, 4-a]pyrazine-5, 8-dione [BL-241]” the “% Cell Proliferation Inhibition (intracellular DNA) RT4 (average ± E.P.M.)” value ([1]; RT4, 100 nM) was 28 ± 6%, the “% Cell Proliferation Inhibition (intracellular DNA) RT4 (average ± E.P.M.)” value ([1]; RT4, 300 nM) was 5 ± 2% and the “% Cell Proliferation Inhibition (intracellular DNA) RT4 (average ± E.P.M.)” value ([1]; RT4, 500 nM) was 4 ± 2%. The “% Cell Proliferation Inhibition (intracellular DNA) RT4 (average ± E.P.M.)” value ([1]; RT4, 1000 nM) was 11 ± 8%, the “% Cell Proliferation Inhibition (intracellular DNA) RT4 (average ± E.P.M.)” value ([1]; RT4, 3000 nM) was 57 ± 4% and the “antiproliferative effect (result in words)” value (“antiproliferative effect” below) ([1]; RT4 bladder cancer tumor lineage) was “presented antiproliferative effect”. For the same substance, the “% Cell Proliferation Inhibition (intracellular DNA) MNK45 (average ± E.P.M.)” value ([2]; MNK45, 100 nM) was 25 ± 1%, the “% Cell Proliferation Inhibition (intracellular DNA) MNK45 (average ± E.P.M.)” value ([2]; MNK45, 300 nM) was 10 ± 2% and the “% Cell Proliferation Inhibition (intracellular DNA) MNK45 (average ± E.P.M.)” value ([2]; MNK45, 500 nM) was 2 ± 1%. The “% Cell Proliferation Inhibition (intracellular DNA) MNK45 (average ± E.P.M.)” value ([2]; MNK45, 1000 nM) was 4 ± 1%, the “% Cell Proliferation Inhibition (intracellular DNA) MNK45 (average ± E.P.M.)” value ([2]; MNK45, 3000 nM) was 20 ± 3% and the “antiproliferative effect” value ([3]; PC3 prostate cancer tumor lineage) was “presented antiproliferative effect”. The “% Cell Proliferation Inhibition (intracellular DNA) PC-3 (average ± E.P.M.)” value ([3]; PC-3, 10 nM) was 27 ± 11%, the “% Cell Proliferation Inhibition (intracellular DNA) PC-3 (average ± E.P.M.)” value ([3]; PC-3, 100 nM) was 36 ± 7% and the “% Cell Proliferation Inhibition (intracellular DNA) PC-3 (average ± E.P.M.)” value ([3]; PC-3, 300 nM) was 42 ± 6%. The “% Cell Proliferation Inhibition (intracellular DNA) PC-3 (average ± E.P.M.)” value ([3]; PC-3, 500 nM) was 46 ± 1%, the “% Cell Proliferation Inhibition (intracellular DNA) PC-3 (average ± E.P.M.)” value ([3]; PC-3, 1000 nM) was 33 ± 3% and the “% Cell Proliferation Inhibition (intracellular DNA) DU145 (average ± E.P.M.)” value ([4]; DU145, 100 nM) was 33 ± 8%. The “% Cell Proliferation Inhibition (intracellular DNA) DU145 (average ± E.P.M.)” value ([4]; DU145, 300 nM) was 17 ± 3%, the “% Cell Proliferation Inhibition (intracellular DNA) DU145 (average ± E.P.M.)” value ([4]; DU145, 500 nM) was 18 ± 2% and the “% Cell Proliferation Inhibition (intracellular DNA) DU145 (average ± E.P.M.)” value ([4]; DU145, 1000 nM) was 22 ± 2%. The “% Cell Proliferation Inhibition (intracellular DNA) DU145 (average ± E.P.M.)” value ([4]; DU145, 3000 nM) was 43 ± 5%, the “antiproliferative effect” value ([4]; DU145 prostate cancer tumor lineage) was “presented antiproliferative effect” and the “% of Inhibition (PDE5A1)” value (PDE5A1; compound 500 nM) was 57%. The “% of Inhibition (PDE5A1)” value (PDE5A1; compound 1000 nM) was 71%, the “% of Inhibition (PDE5A1)” value (PDE5A1; compound 3000 nM) was 88% and the “PDE5 inhibition (result in words)” value (PDE5A1; concentration series) was “capable of inhibiting the PDE5 in a dose-dependent manner”. For the same substance, the “antiproliferative effect” value ([5]; LNCAP prostate cancer tumor lineage) was “presented antiproliferative effect”, the “% Cell Proliferation Inhibition (intracellular DNA) LNCAP (average ± E.P.M.)” value ([5]; 10 nM) was 25 ± 2% and the “% Cell Proliferation Inhibition (intracellular DNA) LNCAP (average ± E.P.M.)” value ([5]; 100 nM) was 37 ± 3%. For the same substance, the “% Cell Proliferation Inhibition (intracellular DNA) LNCAP (average ± E.P.M.)” value ([5]; 300 nM) was 38 ± 4%, the “% Cell Proliferation Inhibition (intracellular DNA) LNCAP (average ± E.P.M.)” value ([5]; 500 nM) was 44 ± 2% and the “% Cell Proliferation Inhibition (intracellular DNA) LNCAP (average ± E.P.M.)” value ([5]; 1000 nM) was 34 ± 6%.
